Biological target: T1, Insulin-Degrading Enzyme (IDE) (Homo sapiens, UniProt P14735)
T1 sequence (P14735 42-1019): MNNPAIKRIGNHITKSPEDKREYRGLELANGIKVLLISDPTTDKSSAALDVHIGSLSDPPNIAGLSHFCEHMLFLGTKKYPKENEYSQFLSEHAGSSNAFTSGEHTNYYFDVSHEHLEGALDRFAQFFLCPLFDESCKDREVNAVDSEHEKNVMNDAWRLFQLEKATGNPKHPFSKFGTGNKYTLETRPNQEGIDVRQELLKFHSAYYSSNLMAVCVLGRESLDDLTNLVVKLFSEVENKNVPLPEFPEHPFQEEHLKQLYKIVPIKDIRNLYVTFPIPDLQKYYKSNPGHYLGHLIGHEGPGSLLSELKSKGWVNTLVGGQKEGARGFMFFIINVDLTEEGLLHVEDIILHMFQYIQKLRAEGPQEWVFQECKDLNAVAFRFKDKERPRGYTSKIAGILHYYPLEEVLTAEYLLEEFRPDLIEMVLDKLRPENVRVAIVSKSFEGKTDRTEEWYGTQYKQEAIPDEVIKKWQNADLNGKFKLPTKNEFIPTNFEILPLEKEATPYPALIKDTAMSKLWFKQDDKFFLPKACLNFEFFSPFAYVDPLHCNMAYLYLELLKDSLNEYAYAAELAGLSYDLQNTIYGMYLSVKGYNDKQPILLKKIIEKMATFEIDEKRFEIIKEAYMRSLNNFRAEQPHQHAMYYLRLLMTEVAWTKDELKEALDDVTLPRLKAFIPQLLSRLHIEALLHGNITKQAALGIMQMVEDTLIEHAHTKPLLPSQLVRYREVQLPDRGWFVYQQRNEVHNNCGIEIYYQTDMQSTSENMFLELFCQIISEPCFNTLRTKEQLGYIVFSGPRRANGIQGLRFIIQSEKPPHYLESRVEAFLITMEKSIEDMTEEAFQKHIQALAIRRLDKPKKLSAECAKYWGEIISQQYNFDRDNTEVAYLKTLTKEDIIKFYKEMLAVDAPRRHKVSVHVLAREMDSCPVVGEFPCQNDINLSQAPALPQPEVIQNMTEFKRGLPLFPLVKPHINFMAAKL
Assay: fluorogenic peptide hydrolysis by purified IDE, two-site kinetic fit; LC-MS of insulin hydrolysis (about […] decrease)
Format: biochemical

- Kd: 0.13 µM
SMILES: CC(C)C[C@H](NC(=O)[C@H](CCc1ccccc1)NC(=O)CN1CCOCC1)C(=O)N[C@@H](Cc1ccccc1)C(=O)N[C@@H](CC(C)C)C(=O)[C@@]1(C)CO1 [CFZ, Carfilzomib]

Source: paper PMC8869475 (Biomolecules, 2022)
